Assay results published in patent publication US9115212B2, “Bifunctional peptide” (REGENTIS INTERNATIONAL, priority 2012, dated 2015).
Where a SMILES comes first, the peptide text is derived from it.

Experiments:
COL1A1 gene = assay: Gene expression of COL1A1 in fibroblast cultures (real-time PCR); type: cell-based, human; conditions: fibroblasts, 100 μg/ml, 24 h, normalised to GAPDH
Protocol: (§1) The gene expression of the type I and III collagens in cultures of fibroblasts was also tested in the presence of the different peptides (pept 1 to pept 5) at a concentration of 100 μg/ml.
(§2) After 24 h of treatment with different peptides, the RNAs were extracted from the cultures using a RNeasy® kit (QIAGEN), then re-transcribed into complementary DNAs (cDNAs) using the RT2 First Strand Kit from SABiosciences™.
(§3) Real-time PCR analyses were then performed using the Mx3000p thermocycler from Stratagene in a 96-well plate. Each sample was analyzed in triplicate. The CDNAs serve as matrices in a reaction mixture containing the RT2 SYBR® Green/ROX™ qPCR Master Mix reagents (SABiosciences™) and the sense and antisense primers specific for the gene to be amplified. The reading of the fluorescence was performed at the end of each cycle and analyzed by means of the MxPro software (Stratagene). The relative expression of the COL1A1 and COL3A1 genes of interest coding for type I and type III collagen was obtained by normalizing the amount of products for amplifying the gene being studied by the amount of DNA amplified from a “domestic” gene, in this case the RNA of the gene encoding for the glyceraldehyde-3-phosphate dehydrogenase (GAPDH). As from the number of cycles corresponding to an amplification with a 100% efficiency, the relative quantity of cDNAs studied was calculated using the 2-AACT method (Livak & Schmittgen, 2001).
(§4) The control (Ctrl) corresponds to the expression of the genes coding for both types of collagen when the fibroblasts are not treated.

COL3A1 gene = assay: Gene expression of COL3A1 in fibroblast cultures (real-time PCR); type: cell-based, human; conditions: fibroblasts, 100 μg/ml, 24 h; for gene expression of type III collagen (COL3A1): normalised to GAPDH
Protocol: as §1, §2, §3, §4

type I collagen = assay: Protein expression of type I collagen in dermal fibroblasts (Western Blot, ImageJ); type: cell-based, human; conditions: peptide 100 μg/ml, vs untreated control
Protocol: (§5) The dermal fibroblasts were isolated from abdomen skin biopsies obtained during surgery operations performed on healthy patients between 35 and 75 years of age.
(§6) After removing the epidermis, the fibroblasts were recovered by enzymatic digestion, then were cultured at 37° C. in DMEM (Dulbecco's Modified Eagle Medium) medium supplemented with 10% fetal calf serum and 1% penicillin/streptomycin.
(§7) The fibroblasts were then treated with the peptide having sequence […] (SEQ. ID NO. 1), or various fragments of this sequence, at a concentration of 100 μg/ml. The various fragments tested are as follows: • peptide 1 (pept 1): peptide having the sequence […] (SEQ. ID NO. 1), • peptide 2 (pept 2): sequence […] (SEQ. ID NO. 1), wherein N-terminal and C-terminal ends correspond to N and OH, respectively • peptide 3 (pept 3): (VGVAPG (SEQ. ID NO: 29))3, wherein N-terminal and C-terminal ends correspond to N and OH, respectively • peptide 4 (pept 4): RVRLIL (SEQ. ID NO. 32, wherein N-terminal and C-terminal ends correspond to N and OH, respectively • peptide 5 (pept 5): N-Gly-Ile-Leu-OH
The protein expression of the type I collagen and the type III collagen has then been shown by Western Blot and quantified by ImageJ. The results are shown respectively in the attached FIGS. 3A and 3B. The control (Ctrl) corresponds to the expression of type I and III collagen at the level of cells not treated with peptides. The experiments were performed in triplicate.

MMP-1 [1] = target: T1, MMP-1 (Homo sapiens, UniProt P03956); assay: MMP-1 activity on synthetic substrate DNP-Pro-Cha-Gly-Cys (Me)-His-Ala-Lys (N-Me-Abz)-NH2; type: biochemical
T1 sequence (P03956 100-469): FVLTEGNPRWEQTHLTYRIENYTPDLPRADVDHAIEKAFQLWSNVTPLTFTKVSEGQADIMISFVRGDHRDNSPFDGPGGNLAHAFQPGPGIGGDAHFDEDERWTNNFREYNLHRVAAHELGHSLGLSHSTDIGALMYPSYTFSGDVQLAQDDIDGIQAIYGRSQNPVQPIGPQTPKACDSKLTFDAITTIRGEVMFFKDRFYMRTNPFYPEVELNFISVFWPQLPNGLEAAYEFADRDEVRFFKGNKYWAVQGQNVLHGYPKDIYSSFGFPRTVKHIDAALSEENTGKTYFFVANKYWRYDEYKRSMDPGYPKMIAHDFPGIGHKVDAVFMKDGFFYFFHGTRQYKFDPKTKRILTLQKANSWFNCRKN
Protocol: The substrate of the MMP-1 that was used to test its activity in the presence of the peptide is a synthetic substrate, DNP-Pro-Cha-Gly-Cys (Me)-His-Ala-Lys (N-Me-Abz)-NH2.
A concentration of 80 ng/μl of MMP-1 was brought in the presence of 0.4 ng/μl of synthetic substrate, in the presence or not of bifunctional peptide concentrated at 10^−3, 10^−4 and 10^−5 M for 1 h.
More particularly, FIG. 7A represents a kinetics of hydrolysis of the synthetic substrate of the MMP-1 in the presence or absence (control) of the peptide at different concentrations. The enzymatic activity of the MMP-1 was evaluated by measuring the absorbance (DO) at 465 nm every 5 minutes for a period of 35 min.
FIG. 7B is a graphical representation of the dose-effect relationship between the activity of the MMP-1 and the concentration of bifunctional peptide used at time 15 min.
The Gly-Ile-Leu (GIL) sequence was selected by the inventors for its capability of occupying the P′1, P′2 and P′3 pockets of type I collagenase, the MMP-1. The activity of the latter has been tested on the synthetic substrate, the DNP-Pro-Cha-Gly-Cys (Me)-His-Ala-Lys(N-Me-Abz)-NH2, in the presence or absence of the peptide 5 having the Gly-Ile-Leu (GIL) sequence at concentrations of 10^−5, 10^−4 and 10^−3 M.

MMP-1 [2] = target: T1, MMP-1; assay: MMP-1 activity on natural substrate, collagen fibers of human dermis (cuts of skin, immunostaining); conditions: APMA-activated MMP-1, peptide 100 μg/ml, 3 h
Protocol: The effects of the peptide according to the invention were also tested on the activity of the MMP-1 in the presence of its natural substrate, i.e. the collagen fibers of human dermis.
To this end, the MMP-1 has previously been activated by APMA (4-aminophenylmercuric acetate) at 20 mM for 1 h30 at 37° C. The so activated MMP-1 was then deposited on cuts of skin having a thickness of 5μ in the presence or absence of the peptide according to the invention (100 μg/ml). After 3 h, the cuts of skin were immunostained, in order to reveal the presence of type I and III collagen, then observed by confocal microscopy. […] On the other hand, in the presence of the bifunctional peptide, the action of said MMP-1 was inhibited; indeed, the collagens I and III were detected.

toxicity genes = assay: Toxicity genes through the SAM (Significance Analysis of Microarrays) statistical approach; type: cell-based
Protocol: (§8) According to an embodiment, the bifunctional peptide is used preferably at a concentration substantially between 10 μg/ml and 1 mg/ml. Indeed, no toxicity of the peptide according to the invention has been observed on dermal fibroblasts treated with peptide concentrations up to 1 mg/ml. In addition, studies conducted in order to find the toxicity genes through the SAM (Significance Analysis of Microarrays) statistical approach have shown that the cell death, the disruption of the conjunctive tissue and the tumor invasion are induced only from a high concentration of bifunctional peptide, higher than 1 mg/ml.

[3] = test system: type I and type III collagen; assay: Collagen expression depending on the age of the patients; type: cell-based, human; conditions: dermal fibroblasts from patients
Protocol: Dermal fibroblasts from younger or older patients were cultured and the bifunctional peptide according to the invention having the sequence […] (SEQ. ID NO. 1) has been tested as to the protein and gene expression of type I and type III collagen. The results obtained as regards the protein expression of the two types of collagen are visible in FIG. 5.

urokinase [4] = target: T2, urokinase (Homo sapiens, UniProt P00749); assay: Urokinase activity on synthetic substrate S2444; type: biochemical
Protocol: The activity of the urokinase on its synthetic substrate, D-Glu-Gly-Arg+NHPhNO2 L-Pyroglutamyl-glycyl-L-arginine-p-Nitroaniline hydrochloride (2444) has been tested in the presence and absence of the peptide according to the invention at different concentrations.
A kinetics of hydrolysis of the substrate S2444 […] by the urokinase (9.25*10^−6 mM) was carried out in the presence of the bifunctional peptide having the sequence […] (SEQ. ID NO. 1) and concentrated at 10^−3, 10^−4 and 10^−5 M for 1 hour. The control corresponds to the kinetics in the absence of peptide. The enzyme activity was evaluated by measuring the absorbance (DO) at 405 nm every 5 minutes for a period of 35 min.
FIG. 6B is a graphical representation of the dose/effect relationship between the activity of the urokinase and the concentration of the bifunctional peptide used at time 15 min. The dotted line in the figure permits to determine the IC50, i.e. the peptide concentration required to reduce the activity of the urokinase by 50%.

urokinase [5] = target: T2, urokinase; assay: Cleavage of the bifunctional peptide by the urokinase (HPLC); conditions: excess of urokinase, peptide 0.45 mM
Protocol: At the pericellular level, an excess of urokinase was observed, of about 10^−4 M. The peptide could thus be cleaved by the urokinase, the latter acting in particular at the level of the arginine residues (Arg) of the portion B of the peptide according to the invention.
Studies were conducted by HPLC on a Chromolith Jupiter C18 column (50×4.6 mm), and applying a linear gradient of 0.1% TFA of acetonitrile in 0.1% TFA of water, 0 to 100% for 100 min. […] However, after the action of an excess of urokinase on the bifunctional peptide (0.45 mM), the spectral peak was different; indeed, the new peak was eluted at 20 min, thus characterizing a cleavage of the bifunctional peptide by the urokinase (FIG. 8B).

type III collagen = assay: Protein expression of type III collagen in dermal fibroblasts (Western Blot, ImageJ); type: cell-based, human; conditions: peptide 100 μg/ml
Protocol: as §5, §6, §7
The protein expression of the type I collagen and the type III collagen has then been shown by Western Blot and quantified by ImageJ. The results are shown respectively in the attached FIGS. 3A and 3B. […]

dermal fibroblasts = assay: Toxicity on dermal fibroblasts; type: cell-based; conditions: peptide concentrations up to 1 mg/ml
Protocol: as §8

| effect on the activity of the MMP-1 on its synthetic substrate (MMP-1 [1]; 10^−5, 10^−4 and 10^−3 M) | IC50 (MMP-1 [1]; synthetic substrate, time 15 min, read-out: IC50 MMP-1 activity, peptide concentration (converted)) [µM] | Compound | gene expression of type I collagen (COL1A1) (COL1A1 gene) | gene expression of type III collagen (COL3A1) (COL3A1 gene) | stimulation of the protein expression of the type I collagen (type I collagen) | action of MMP-1 on collagens I and III of cuts of skin (MMP-1 [2]) | concentration from which cell death, disruption of the conjunctive tissue and tumor invasion are induced (toxicity genes) | action on the synthesis of collagen depending on the age of the patients [3] | mode of urokinase inhibition (urokinase [4]) | cleavage by urokinase (urokinase [5]) | increase in the synthesis of type III collagen compared to fibroblasts treated with pept 3 (type III collagen; relative to pept 3) [%] | production of type III collagen (type III collagen; vs untreated control) | toxicity on dermal fibroblasts (dermal fibroblasts) | synthesis of type III collagen (gene expression) with respect to cells treated with peptide 3 (COL3A1 gene; relative to peptide 3) |
| --- | --- | --- | --- | --- | --- | --- | --- | --- | --- | --- | --- | --- | --- | --- |
|  |  | (VGVAPG (SEQ. ID NO: 29))3 [pept 3] | stimulate | stimulate | 30% |  |  |  |  |  |  |  |  |  |
|  |  | RVRLIL [pept 4, ID NO; 32] | no effect | no effect | do not permit the stimulation |  |  |  |  |  |  |  |  |  |
| decreases in a dose-dependent way | 70.7 | CC[C@H](C)[C@H](NC(=O)CN)C(=O)N[C@@H](CC(C)C)C(=O)O [pept 5, N-Gly-Ile-Leu-OH] (H-Gly-Ile-Leu-OH) | no effect | no effect | do not permit the stimulation |  |  |  |  |  |  |  |  |  |
|  |  | CC[C@H](C)[C@H](NC(=O)CNC(=O)[C@H](CC(C)C)NC(=O)[C@H](CCCNC(=N)N)NC(=O)[C@@H](NC(=O)[C@H](CCCNC(=N)N)NC(=O)CNC(=O)[C@@H]1CCCN1C(=O)[C@H](C)NC(=O)[C@@H](NC(=O)[C@H](C)NC(=O)[C@@H](NC(=O)CNC(=O)[C@@H]1CCCN1C(=O)[C@H](C)NC(=O)[C@@H](NC(=O)[C@H](C)NC(=O)[C@@H](NC(=O)CNC(=O)[C@@H]1CCCN1C(=O)[C@H](C)NC(=O)[C@@H](NC(=O)CNC(=O)[C@@H](N)C(C)C)C(C)C)C(C)C)C(C)C)C(C)C)C(C)C)C(C)C)C(=O)N[C@@H](CC(C)C)C(=O)O [pept 1] (H-VGVAPGVAVAPGVAVAPGRVRLGIL-OH) | stimulate | stimulate | 30% | inhibited | higher than 1 mg/ml | greater when the fibroblasts proceed from older patients | competitive inhibitor | cleavage | 36 | more than doubled | no toxicity | increase |
|  |  | VGVAPGVAVAPGVAVAPGRVRLGIL [pept 2] | stimulate | stimulate | 30% |  |  |  |  |  |  |  |  |  |
